# Reference: US10945685B2, “System and method for normalizing standardized uptake values in brain positron emission tomography (PET) images” (New York University, priority 2018, dated 2021)
# “Also recorded” adds a separate entry of the source.
# Legend:
# Type in all cases: in vivo, human
# [1] = Off-target binding observed on PET images; details: observed on PET image
# Description: (§1) PET imaging was performed using an Eminence STARGATE PET scanner (Shimadzu, Kyoto, Japan). After intravenous injection of ^18F-THK5351 (185 MBq), dynamic PET images were obtained for 60 min. acquisition matrix is 128×128×79 and voxels size is 2×2×2.6 mm. ^18F-THK5351 was synthesized. MRI was performed on all participants. T1 weighted MR images were obtained using a SIGNA 1.5-Tesla machine (General Electric, Milwaukee, Wis.). In T1-weighted MRI, a 3D volumetric acquisition of a T1-weighted gradient echo sequence produced a gapless series of thin axial sections by using a vascular TOF SPGR sequence (echo time/repetition time, 2.4/50 ms; flip angle, 45°; acquisition matrix, 256×256; 1 excitation; field of view, 22 cm; slice thickness, 2.0 mm).
# AV-1451 data were downloaded from ADNI with series description “AV1451 Coreg, Avg, Std Img and Vox Siz, Uniform Resolution”. An intravenous injection of 10 mCi ^18F-AV-1451 (370 MBq) is followed by a saline flush. At approximately 75 minutes following injection, a continuous 30-minute brain scan (6 frames of 5-minute duration) was performed after a CT or transmission scan for attenuation correction. PET imaging was performed using GEMINI TF TOF 16 (Philips Medical Systems), with 6 frames; acquisition matrix 128×128×90; pixel spacing 2×2 mm; slice thickness 2 mm.
# Standardized uptake value (SUV) images were obtained by normalizing tissue radioactivity concentration by injected dose and bodyweight. Estimates of tau deposition were determined for THK53151 with the 40-60 min SUV and for AV1451 with for the 80-100 min SUV. Standard SUVR was generated by using cerebellar cortex as reference. To control the variation of SUVR measures in THK5351 and AV1451 PET caused by the off-target binding in reference region, each subject's SUV images were first transferred into standardized SUVP images, using the Peak-alignment method (as described above). […]
# tau [2] = test: AD-NL classification from tau PET: ROC AUC and AD-NL ratio of PBP; details: temporal lobe
# tau [3] = test: Tau PET tracer binding, SUVP peak-alignment method and positive binding percentage (PBP), AD patients and NL subjects; details: for PBP of SUVP, Basal ganglia / PBP of SUVP, Cerebellar GM / PBP of SUVP, Cerebral GM / PBP of SUVP, Cerebral WM / PBP of SUVP, Frontal cortex / PBP of SUVP, Occipital cortex / PBP of SUVP, Partial cortex / PBP of SUVP, Temporal cortex: SUVP cutoff 1.5; for PBP of SUVP, Basal ganglia / PBP of SUVP, Cerebellar GM / PBP of SUVP, Cerebral GM / PBP of SUVP, Cerebral WM / PBP of SUVP, Frontal cortex / PBP of SUVP, Occipital cortex / PBP of SUVP, Partial cortex / PBP of SUVP, Temporal cortex / mean SUVP in cerebellum GM: mean (SD)
# From the text: The set of standardized uptake values (with repetition) for all voxels within brain region r and subject s may be represented as SUV(r,s). Each of the values of SUV(r,s) may be normalized using a SUVP method represented as follows: SUVP(r,s)=(SUV(r,s)−M)/S, where M corresponds to a peak of the number of counts of emissions events recorded across all of the voxels of the PET image data, and S corresponds to a spread of all of the different counts of emissions events recorded across all of the voxels of the PET image data. Each subject's SUV image may be normalized and transferred into a standardized SUVP, using the standardized uptake value peak-alignment (SUVP) method described herein.
# In one particular example, M is the sample mode of rounded SUV(r,s), and S is the standard deviation of SUV(r,s). Furthermore, the peak (M) values, in particular the sample mode of rounded SUV(r,s) may be used as a reference region to normalize raw SUV data using methods similar to SUVR.
# In addition, as shown in step 112, a SUVP method may also be used to analyze regional percentages of positive binding in the PET data. Positive binding may be defined based on a predetermined cutoff value. The predetermined cutoff value may be any suitable value that is well above background signal. In some embodiments, the predetermined cutoff value may be manually set by a user. One important advantage of SUVP is that it standardized range of whole brain SUV into a generally fixed range regardless of tracer or disease condition, allowing universal cutoff for different tracers (e.g., 1.5 for all tracers), while SUVR cutoffs are tracer-dependent and varies across different studies (e.g., 1.5 for THK5315 and 1.2 for AV1451). Additionally, as discussed further below in Example I, when SUVP was calculated by using a standard deviation (SD), 1.5 times a SUVP cutoff value is equivalent to 1.5 times SD, which signifies a statistic meaningful way to distinguish and identify positive voxels. The percentage of positive binding (PBP) may be obtained by:
# Subjects come from two sources. 18 subjects (9 AD patients, and 9 healthy elderly study participants) underwent ^18F-THK5351 PET scans from the memory clinic of Tohoku University Hospital. ^18F-AV-1451 scans were obtained from the ADNI (Alzheimer's Disease Neuroimaging Initiative) database (adni.loni.usc.edu). 32 Subjects (20 NL and 12 AD) with ^18F-AV-1451 were selected from ADNI, that were matched to the age and MMSE in participants of the THK5351 group.
# as §1
# AV-1451 data were downloaded from ADNI with series description “AV1451 Coreg, Avg, Std Img and Vox Siz, Uniform Resolution”. An intravenous injection of 10 mCi ^18F-AV-1451 (370 MBq) is followed by a saline flush. At approximately 75 minutes following injection, a continuous 30-minute brain scan (6 frames of 5-minute duration) was performed after a CT or transmission scan for attenuation correction. PET imaging was performed using GEMINI TF TOF 16 (Philips Medical Systems), with 6 frames; acquisition matrix 128×128×90; pixel spacing 2×2 mm; slice thickness 2 mm. […]
Structure (SMILES),regions with off-target binding [1],"AD-NL ratio (R), SUVR Mean (tau [2])","PBP of SUVP, Basal ganglia (tau [3]; AD patients)","PBP of SUVP, Cerebellar GM (tau [3]; AD patients)","PBP of SUVP, Cerebral GM (tau [3]; AD patients)","PBP of SUVP, Cerebral WM (tau [3]; AD patients)","PBP of SUVP, Frontal cortex (tau [3]; AD patients)","PBP of SUVP, Occipital cortex (tau [3]; AD patients)","PBP of SUVP, Partial cortex (tau [3]; AD patients)","PBP of SUVP, Temporal cortex (tau [3]; AD patients)",mean SUVP in cerebellum GM (tau [3]; AD patients),"PBP of SUVP, Basal ganglia (tau [3]; NL subjects)","PBP of SUVP, Cerebellar GM (tau [3]; NL subjects)","PBP of SUVP, Cerebral GM (tau [3]; NL subjects)","PBP of SUVP, Cerebral WM (tau [3]; NL subjects)","PBP of SUVP, Frontal cortex (tau [3]; NL subjects)","PBP of SUVP, Occipital cortex (tau [3]; NL subjects)","PBP of SUVP, Partial cortex (tau [3]; NL subjects)","PBP of SUVP, Temporal cortex (tau [3]; NL subjects)",mean SUVP in cerebellum GM (tau [3]; NL subjects),also measured
[18F]c1ccc(-c2ccc3c(c2)[nH]c2ccncc23)cn1 [AV-1451],choroidal plexus and substantia nigra; also recorded: cerebral white matter and basal ganglia region,1.17,18.55(12.28)^,.90(1.46),9.4(10.83)^+,7.86(7.44)^+,5.32(7.70)^,5.59(8.23)^+,10.2(15.2)^+,20.72(20.48)*^+,−0.73(0.43),28.14(11.42),.83(1.45),1.85(3.24),2.65(3.64),0.78(1.43),0.54(1.58),0.95(3.21),5.44(11.10),−1.00(0.45),regions with off-target binding ([1]; listed as AV1451): cerebellum; increase of cerebellar GM SUVP in AD comparing to NL (tau [3]; AD vs NL): 37%
CNc1ccc(-c2ccc3cc(OC[C@H](O)CF)ccc3n2)cn1 [THK5351],ponds and Amygdala; also recorded: cerebral white matter and basal ganglia region,1.18,61.93(7.25),.07(.10),5.56(1.47),8.70(3.24),1.25(0.86)^,1.73(2.79)^,2.16(3.33)^+,17.94(5.15)*^+,−1.24(0.24),81.24(8.55)^++,.10(.14),3.81(2.19),7.06(1.55),2.37(1.25)^+,0.05(0.09),0.17(0.21),6.93(4.78),−1.21(0.28),decrease of cerebellum GM SUVP in AD comparing to NL (tau [3]; AD vs NL): 2.5%
